In PubChem BioAssay AID256 (DTP/NCI, 2004):
Values joined by “and” are separate entries in the source; they are usually repeats but may differ in a detail not shown here. Equal entries are not always repeated. Inconclusive results and toxic doses are left out. The calls were made as follows: active = survival T/C of 150% or more; inactive = T/C below 125% in these data.

Test system: CD2F1 mice, L1210 leukemia ip, survival T/C
Experiment: NCI In Vivo Anticancer Drug Screen. Data for tumor model L1210 Leukemia (intraperitoneal) in CD2F1 (CDF1) mice
Conditions: higher = longer survival
Method in brief: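 Tumor-bearing mice (transplanted tumor) were split into treated and vehicle control groups, and the measured endpoint of each treated group was divided by that of its vehicle controls.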

[1] = endpoint: mean survival time, dose: 50.0 mg/kg/injection, schedule: Q01DX009 (ip), vehicle: saline with Tween-80
[2] = endpoint: mean survival time, dose: 100.0 mg/kg/injection, schedule: Q01DX009 (ip), vehicle: saline with Tween-80
[3] = endpoint: mean survival time, dose: 200.0 mg/kg/injection, schedule: Q01DX009 (ip), vehicle: saline with Tween-80
[4] = endpoint: mean survival time, dose: 400.0 mg/kg/injection, schedule: Q01DX009 (ip), vehicle: saline with Tween-80
[5] = endpoint: mean survival time, dose: 100.0 mg/kg/injection, schedule: Q04DX002 (ip), vehicle: saline with Tween-80
[6] = endpoint: mean survival time, dose: 200.0 mg/kg/injection, schedule: Q04DX002 (ip), vehicle: saline with Tween-80
[7] = endpoint: mean survival time, dose: 25.0 mg/kg/injection, schedule: Q04DX002 (ip), vehicle: saline with Tween-80

Measured: T/C

CC(Oc1ccccc1-c1ccccc1)C(=O)N(C)C (stereo not given)
inactive: endpoint: mean survival time, dose: 12.5 mg/kg/injection, schedule: Q01DX009 (ip), vehicle: saline with Tween-80 93 % of control and 102 % of control | endpoint: mean survival time, dose: 25.0 mg/kg/injection, schedule: Q01DX009 (ip), vehicle: saline with Tween-80 95 % of control and 100 % of control | [1] 97 % of control and 104 % of control | [2] 97 % of control and 104 % of control | [3] 95 % of control and 102 % of control | [4] 97 % of control and 104 % of control

C[N+](C)(CCCCCC[N+](C)(C)Cc1ccccc1)Cc1ccccc1
inactive: endpoint: mean survival time, dose: 1.25 mg/kg/injection, schedule: Q01DX009 (ip), vehicle: saline with Tween-80 93 % of control | endpoint: mean survival time, dose: 2.5 mg/kg/injection, schedule: Q01DX009 (ip), vehicle: saline with Tween-80 93 % of control | endpoint: mean survival time, dose: 5.0 mg/kg/injection, schedule: Q01DX009 (ip), vehicle: saline with Tween-80 93 % of control | endpoint: median survival time, dose: 0.63 mg/kg/injection, schedule: Q04DX002 (ip), vehicle: saline with Tween-80 112 % of control | endpoint: median survival time, dose: 1.25 mg/kg/injection, schedule: Q04DX002 (ip), vehicle: saline with Tween-80 100 % of control | endpoint: median survival time, dose: 2.5 mg/kg/injection, schedule: Q04DX002 (ip), vehicle: saline with Tween-80 100 % of control | endpoint: median survival time, dose: 5.0 mg/kg/injection, schedule: Q04DX002 (ip), vehicle: saline with Tween-80 100 % of control

Cc1ccc(S(=O)(=O)n2nc(C3OC(CO)C(O)C3O)c(O)c2C(N)=O)cc1 (stereo not given)
inactive: endpoint: median survival time, dose: 44.6 mg/kg/injection, schedule: Q01DX005 (ip), vehicle: saline 120 % of control | endpoint: median survival time, dose: 89.3 mg/kg/injection, schedule: Q01DX005 (ip), vehicle: saline 120 % of control

CCOC(=O)C#CC1CCCCC1
inactive: [1] 98 % of control | [2] 98 % of control | [3] 102 % of control

O=S(CCO)c1c(Cl)c(Cl)c(Cl)c(Cl)c1Cl (stereo not given)
inactive: [5] 94 % of control | [6] 94 % of control

CCOC(=O)/C(C#N)=N/O
inactive: endpoint: mean survival time, dose: 75.0 mg/kg/injection, schedule: Q01DX001 (ip), vehicle: saline 100 % of control

O=S1(=O)CC2(N3CCOCC3)CCCCC21 (stereo not given)
inactive: endpoint: mean survival time, dose: 100.0 mg/kg/injection, schedule: Q04DX003 (ip), vehicle: saline 100 % of control | endpoint: mean survival time, dose: 200.0 mg/kg/injection, schedule: Q04DX003 (ip), vehicle: saline 102 % of control | endpoint: mean survival time, dose: 400.0 mg/kg/injection, schedule: Q04DX003 (ip), vehicle: saline 104 % of control

CCC12CCCN=C1c1c([nH]c3ccccc13)CC2 (stereo not given)
inactive: endpoint: mean survival time, dose: 6.25 mg/kg/injection, schedule: Q04DX002 (ip), vehicle: saline with Tween-80 102 % of control | endpoint: mean survival time, dose: 12.5 mg/kg/injection, schedule: Q04DX002 (ip), vehicle: saline with Tween-80 104 % of control | [7] 98 % of control

COc1ccc(NC(=O)Nc2ccc([N+](=O)[O-])cc2OC)c(Cl)c1
inactive: [7] 88 % of control and 101 % of control | endpoint: mean survival time, dose: 50.0 mg/kg/injection, schedule: Q04DX002 (ip), vehicle: saline with Tween-80 95 % of control and 103 % of control | endpoint: mean survival time, dose: 100.0 mg/kg/injection, schedule: Q01DX001 (ip), vehicle: saline with Tween-80 94 % of control | [2] 88 % of control and 95 % of control | [5] 95 % of control | endpoint: mean survival time, dose: 100.0 mg/kg/injection, schedule: Q04DX003 (ip), vehicle: saline with Tween-80 97 % of control | endpoint: mean survival time, dose: 200.0 mg/kg/injection, schedule: Q01DX001 (ip), vehicle: saline with Tween-80 101 % of control | [3] 88 % of control and 97 % of control | [6] 93 % of control | endpoint: mean survival time, dose: 200.0 mg/kg/injection, schedule: Q04DX003 (ip), vehicle: saline with Tween-80 95 % of control | endpoint: mean survival time, dose: 400.0 mg/kg/injection, schedule: Q01DX001 (ip), vehicle: saline with Tween-80 86 % of control and 91 % of control | [4] 90 % of control and 100 % of control | endpoint: mean survival time, dose: 400.0 mg/kg/injection, schedule: Q04DX002 (ip), vehicle: saline with Tween-80 98 % of control | endpoint: mean survival time, dose: 400.0 mg/kg/injection, schedule: Q04DX003 (ip), vehicle: saline with Tween-80 101 % of control

Nc1cc(OCc2ccccc2)c2n[nH]nc2n1
inactive: endpoint: mean survival time, dose: 25.0 mg/kg/injection, schedule: Q01DX005 (ip), vehicle: other 96 % of control | endpoint: mean survival time, dose: 50.0 mg/kg/injection, schedule: Q01DX005 (ip), vehicle: other 92 % of control | endpoint: mean survival time, dose: 200.0 mg/kg/injection, schedule: Q01DX005 (ip), vehicle: other 94 % of control | endpoint: mean survival time, dose: 400.0 mg/kg/injection, schedule: Q01DX005 (ip), vehicle: other 105 % of control
